Experimental findings from patent US20240417406A1, “NITROGEN-CONTAINING TRICYCLIC COMPOUND AND PHARMACEUTICAL USE THEREOF” (JAPAN TOBACCO INC., priority 2021, published 2024) are described below.

This assay concerns the target human PDHK2 (hPDHK2) (Homo sapiens (Human), UniProt Q15119). Kind of assay: Inhibitory action of PDHK2 activity (PDH/hPDHK2 complex, residual PDH activity by NADH absorbance at 340 nm). The assay is classed as biochemical. Conditions: FLAG-tagged recombinant hPDHK2 with porcine heart PDH complex; PDHK reaction 45 min at room temperature. On the procedure: In the case of human PDHK2 (hPDHK2, NCBI Reference Database Accession number NM_002611.4), modified hPDHK2 cDNA wherein FLAG-Tag sequence was added to the N terminal of hPDHK2 cDNA clone (pReceiver-M01/PDK2-GeneCopoeia) as the base was prepared by polymerase chain reaction (PCR) and ligated to the NdeI/EcoRI site of pET-17b vector (Merck KGaA, Catalog Number 69663-3). The recombinant construct was transformed into Escherichia coli DH5a. The recombinant clones were identified, and plasmid DNA was isolated and subjected to the DNA sequence analysis. One clone which had the expected nucleic acid sequence was selected for expression work.
For expression of hPDHK2 activity, Escherichia coli strain BL21(DE3) cells (Merck KGaA, Catalog Number 69450-4) were transformed with the pET17b vector containing modified hPDHK2 cDNA. The Escherichia coli were grown to an optical density 0.6 ([…]) at 30° C. Protein expression was induced by the addition of 500 μmol/L isopropyl-β-thiogalactopyranoside. The Escherichia coli were cultured at 20° C. for 17 to for 18 hr and harvested by centrifugation. The harvested Escherichia coli was resuspended in a suspension buffer (20 mmol/L HEPES-NaOH, 500 mmol/L sodium chloride, 1% ethylene glycol, 0.1% Pluronic (registered trademark) F-68 (pH 8.0), cOmplete, EDTA-free (Roche) (pH 8.0)), and disrupted by a microfluidizer M-110H (MIZUHO INDUSTRIAL CO., LTD.). The precipitate was removed by centrifugation and the supernatant was added to DDDDK-tagged Protein PURIFICATION GEL (MEDICAL & BIOLOGICAL LABORATORIES CO., LTD., Code No. 3329). DDDDK-tagged Protein PURIFICATION GEL was washed with a washing buffer (20 mmol/L HEPES-NaOH, 500 mmol/L sodium chloride, 1% ethylene glycol, 0.1% Pluronic F-68 (pH 8.0)) and the bound protein was eluted with elution buffer 1 (20 mmol/L HEPES-NaOH, 100 μg/mL peptide (amino acid sequence DYKDDDDK) (SEQ ID NO: 1), 500 mmol/L sodium chloride, 1% ethylene glycol, 0.1% Pluronic F-68 (pH 8.0)). The eluted fractions containing FLAG-Tagged protein were pooled, concentrated by an ultrafiltration method, added to a gel filtration column (HiLoad 26/60 Superdex 200 (GE Healthcare Life Sciences, Code No. 17-1070-01)), and eluted with elution buffer 2 (20 mmol/L HEPES-NaOH, 150 mmol/L sodium chloride, 0.5 mmol/L ethylenediaminetetraacetic acid (EDTA), 1% ethylene glycol, 0.1% Pluronic F-68 (pH 8.0)). The eluted fractions were pooled and preserved at −80° C.
PDH (porcine heart PDH complex, Sigma P7032) and 0.5 μg/mL hPDHK2 were mixed in an assay buffer (50 mmol/L 3-morpholinopropanesulfonic acid (pH 7.0), 20 mmol/L dipotassium hydrogen phosphate, 60 mmol/L potassium chloride, 2 mmol/L magnesium chloride, 0.4 mmol/L EDTA, 0.2% poloxamer, 2 mmol/L dithiothreitol) so that the final concentration of PDH was 0.025 U/mL, and the mixture was incubated at 4° C. overnight to obtain a PDH/hPDHK2 complex solution.
PDH was mixed with the assay buffer so that the final concentration was 0.025 U/mL, and the mixture was incubated at 4° C. overnight to prepare a PDH solution.
The test compounds were diluted with DMSO. […] DMSO (1.5 μL) was added to control wells instead of test compound. In addition, DMSO (1.5 μL) was added to blank wells instead of the test compound, and PDH solution was added instead of the PDH/hPDHK2 complex solution. To measure an inhibitory action of the test compound on the PDHK activity inherent in the PDH solution, a test compound was added and the PDH solution instead of the PDH/hPDHK2 complex solution was added to a blank+test compound well.
Then, 10 μL of substrates (5 mmol/L sodium pyruvate, 5 mmol/L Coenzyme A, 12 mmol/L NAD, 5 mmol/L thiamine pyrophosphate, diluted with assay buffer) were added. The mixture was incubated at room temperature for 90 min, and the residual PDH activity was measured.
The absorbance of each well at 340 nm was measured using a microplate reader to detect NADH produced by the PDH reaction. […]

Take `C[C@H]1Cn2nc(OCC(C)(C)O)cc2-c2onc([C@@](C)(O)C(F)(F)F)c21` (racemic) [Example 14]: the concentration for half-maximal inhibition (IC50) amounted to 14.4 nM.
Take `C[C@H]1Cn2nc(OCc3ccccc3)cc2-c2onc([C@@](C)(O)C(F)(F)F)c21` (racemic) [Example 15]: the half-inhibitory concentration (IC50) was 10.9 nM.
As for `C[C@H]1Cc2c(cnn2C(C)(C)C)-c2onc([C@@](C)(O)C(F)(F)F)c21` (racemic) [Example 16], the figure is 12.2 nM; as for `C[C@H]1Cn2nccc2-c2onc([C@@](C)(O)C(F)(F)F)c21` (racemic) [Example 17], 21.3 nM; as for `C[C@H]1Cc2c(cnn2C2CC2)-c2onc([C@@](C)(O)C(F)(F)F)c21` (racemic) [Example 18], 12.5 nM.
As for `C[C@H]1Cc2[nH]ncc2-c2onc([C@@](C)(O)C(F)(F)F)c21` (racemic) [Example 20], the figure is 22.6 nM; as for `C[C@H]1Cc2c(cnn2C(F)F)-c2onc([C@@](C)(O)C(F)(F)F)c21` (racemic) [Example 21], 19.8 nM.
Turning to `C[C@H]1Cc2nn(C(F)F)cc2-c2onc([C@@](C)(O)C(F)(F)F)c21` (racemic) [Example 22], the IC50 was determined as 22.4 nM.
To `C[C@H]1Cc2nn(C)cc2-c2onc([C@@](C)(O)C(F)(F)F)c21` (racemic) [Example 23] belongs 18.8 nM.
`C[C@H]1Cc2c(cnn2C)-c2onc([C@@](C)(O)C(F)(F)F)c21` (racemic) [Example 24]: the concentration for half-maximal inhibition (IC50) stood at 25.4 nM.
For the compound `C[C@H]1Cc2nn(CCC#N)cc2-c2onc([C@@](C)(O)C(F)(F)F)c21` (racemic) [Example 32], the half-inhibitory concentration (IC50) came to 20.1 nM.
To `C[C@H]1Cn2nc(OCCC(C)(C)O)cc2-c2onc([C@@](C)(O)C(F)(F)F)c21` (racemic) [Example 34] belongs 14.7 nM; to `C[C@H]1Cn2nc(OC3CCOCC3)cc2-c2onc([C@@](C)(O)C(F)(F)F)c21` (racemic) [Example 35], 17.8 nM; to `C[C@H]1Cn2nc(O[C@H]3CCOC3)cc2-c2onc([C@@](C)(O)C(F)(F)F)c21` (racemic) [Example 36], 14 nM.
To `C[C@H]1Cn2nc(O[C@H]3CC[C@](C)(O)CC3)cc2-c2onc([C@@](C)(O)C(F)(F)F)c21` (racemic) [Example 37] belongs 17.2 nM; to `C[C@H]1Cc2nn(CC(C)(C)O)cc2-c2onc([C@@](C)(O)C(F)(F)F)c21` (racemic) [Example 38], 25.2 nM.
For `C[C@H]1Cc2c(cnn2CC(C)(C)O)-c2onc([C@@](C)(O)C(F)(F)F)c21` (racemic) [Example 39], the concentration for half-maximal inhibition (IC50) is 14.4 nM.
Regarding `C[C@H]1Cn2nc(OCC#N)cc2-c2onc([C@@](C)(O)C(F)(F)F)c21` (racemic) [Example 42], the 50% inhibitory concentration (IC50) was 19.2 nM.
To `C[C@H]1Cn2nc(OCF)cc2-c2onc([C@@](C)(O)C(F)(F)F)c21` (racemic) [Example 44] belongs 18.3 nM; to `C[C@H]1Cn2nc(OC(F)F)cc2-c2onc([C@@](C)(O)C(F)(F)F)c21` (racemic) [Example 45], 26.4 nM.
To `C[C@H]1Cn2nc(OCC3COC3)cc2-c2onc([C@@](C)(O)C(F)(F)F)c21` (racemic) [Example 46] belongs 15.9 nM; to `C[C@H]1Cn2nc(O[C@H]3C[C@](C)(C#N)C3)cc2-c2onc([C@@](C)(O)C(F)(F)F)c21` (racemic) [Example 47], 25.8 nM.
To `C[C@H]1Cn2nc(O[C@H]3C[C@@](C)(C#N)C3)cc2-c2onc([C@@](C)(O)C(F)(F)F)c21` (racemic) [Example 48] belongs 18.1 nM; to `C[C@H]1Cc2c(cnn2CC#N)-c2onc([C@@](C)(O)C(F)(F)F)c21` (racemic) [Example 50], 14.5 nM; to `C[C@H]1Cc2c(cnn2C23CC(C#N)(C2)C3)-c2onc([C@@](C)(O)C(F)(F)F)c21` (racemic) [Example 51], 13.7 nM.
Turning to `C[C@H]1Cn2nc(C3CCOCC3)cc2-c2onc([C@@](C)(O)C(F)(F)F)c21` (racemic) [Example 52], the concentration for half-maximal inhibition (IC50) was determined as 15 nM.
To `C[C@H]1Cc2c(cnn2[C@H]2C[C@](C)(C#N)C2)-c2onc([C@@](C)(O)C(F)(F)F)c21` (racemic) [Example 53, (1S,3r)-1-methyl-3-((S)-4-methyl-3-((R)-1,1,1-trifluoro-2-hydroxypropan-2-yl)-4,5-dihydro-6H-isoxazolo[5,4-e]indazol-6-yl)cyclobutane-1-carbonitrile and enantiomer thereof] belongs 8.8 nM; to `C[C@H]1Cc2nn([C@H]3C[C@](C)(C#N)C3)cc2-c2onc([C@@](C)(O)C(F)(F)F)c21` (racemic) [Example 54, (1S,3r)-1-methyl-3-((S)-4-methyl-3-((R)-1,1,1-trifluoro-2-hydroxypropan-2-yl)-4,5-dihydro-7H-isoxazolo[5,4-e]indazol-7-yl)cyclobutane-1-carbonitrile and enantiomer thereof], 7.2 nM.
To `C[C@H]1Cc2nn([C@H]3CC[C@](C)(O)CC3)cc2-c2onc([C@@](C)(O)C(F)(F)F)c21` (racemic) [Example 55, (1S,4r)-1-methyl-4-((S)-4-methyl-3-((R)-1,1,1-trifluoro-2-hydroxypropan-2-yl)-4,5-dihydro-7H-isoxazolo[5,4-e]indazol-7-yl)cyclohexan-1-ol and enantiomer thereof] belongs 14.3 nM; to `C[C@H]1Cc2c(cnn2[C@H]2CC[C@](C)(O)CC2)-c2onc([C@@](C)(O)C(F)(F)F)c21` (racemic) [Example 56, (1S,4r)-1-methyl-4-((S)-4-methyl-3-((R)-1,1,1-trifluoro-2-hydroxypropan-2-yl)-4,5-dihydro-6H-isoxazolo[5,4-e]indazol-6-yl)cyclohexan-1-ol and enantiomer thereof], 10.7 nM; to `C[C@H]1Cc2c(cnn2[C@H]2C[C@@](C)(C#N)C2)-c2onc([C@@](C)(O)C(F)(F)F)c21` (racemic) [Example 57, (1R,3s)-1-methyl-3-((S)-4-methyl-3-((R)-1,1,1-trifluoro-2-hydroxypropan-2-yl)-4,5-dihydro-6H-isoxazolo[5,4-e]indazol-6-yl)cyclobutane-1-carbonitrile and enantiomer thereof], 28.5 nM.
To `C[C@H]1Cc2nn([C@H]3C[C@@](C)(C#N)C3)cc2-c2onc([C@@](C)(O)C(F)(F)F)c21` (racemic) [Example 58, (1R,3s)-1-methyl-3-((S)-4-methyl-3-((R)-1,1,1-trifluoro-2-hydroxypropan-2-yl)-4,5-dihydro-7H-isoxazolo[5,4-e]indazol-7-yl)cyclobutane-1-carbonitrile and enantiomer thereof] belongs 20.4 nM; to `C[C@H]1Cn2nc(C(F)(F)F)cc2-c2cnnc([C@@](C)(O)C(F)(F)F)c21` (racemic) [Example 99, mixture of (R)-1,1,1-trifluoro-2-((R)-5-methyl-9-(trifluoromethyl)-5,6-dihydropyrazolo[1′,5′:1,2]pyrido[3,4-d]pyridazin-4-yl)propan-2-ol and (S)-1,1,1-trifluoro-2-((S)-5-methyl-9-(trifluoromethyl)-5,6-dihydropyrazolo[1′,5′:1,2]pyrido[3,4-d]pyridazin-4-yl)propan-2-ol], 23.4 nM.
